The source of these data is ChEMBL document CHEMBL1144479, “Synthesis and antimicrobial studies on novel chloro-fluorine containing hydroxy pyrazolines” (2007).

In brackets after ≈: the same amount, converted by molar mass.

Experiment [1] relates to Aspergillus flavus. Description: Antifungal activity against Aspergillus flavus NCIM no. 524 after 3 to 4 days by serial plate dilution method. It is filed as functional. As to conditions: for MIC: Aspergillus flavus.
Experiment [2] deals with Staphylococcus aureus. As to the kind of experiment: microbe, parasite or virus in culture. It is filed as functional, ATCC 25923. As to conditions: for MIC: Staphylococcus aureus, ATCC 25923, 24 h.
Description: Antibacterial activity against Staphylococcus aureus ATCC 25923 after 24 hrs by disc diffusion method
In experiment [3] the test system is Escherichia coli. As to the kind of experiment: microbe, parasite or virus in culture. It is filed as functional, ATCC 25922. As to conditions: for MIC: Escherichia coli, ATCC 25922, 24 h.
Description: Antibacterial activity against Escherichia coli ATCC 25922 after 24 hrs by disc diffusion method
Experiment [4] relates to Pseudomonas aeruginosa. Description: microbe, parasite or virus in culture. Type of experiment: functional, ATCC 27853. As to conditions: for MIC: Pseudomonas aeruginosa, ATCC 27853, 24 h.
Description: Antibacterial activity against Pseudomonas aeruginosa ATCC 27853 after 24 hrs by disc diffusion method
For experiment [5], the system named is Klebsiella pneumoniae. Description: Antibacterial activity against Klebsiella pneumoniae after 24 hrs by disc diffusion method. As to conditions: for MIC: Klebsiella pneumoniae, 24 h. It is filed as functional. A general note: A growth-free zone around the sample is the usual read-out of agar diffusion tests.
The subject of experiment [6] is Streptococcus pyogenes. Description: Antibacterial activity against Streptococcus pyogenes after 24 hrs by disc diffusion method. It is filed as functional. As to conditions: for MIC: Streptococcus pyogenes, 24 h.
The test system of experiment [7] is Aspergillus fumigatus. Description: Antifungal activity against Aspergillus fumigatus NCIM no. 902 after 3 to 4 days by serial plate dilution method. Type of experiment: functional. As to conditions: for MIC: Aspergillus fumigatus.
The test system of experiment [8] is Trichophyton benhamiae. Description: Antifungal activity against Trichophyton mentagrophytes after 3 to 4 days by serial plate dilution method. As to conditions: for MIC: Trichophyton benhamiae. Type of experiment: functional, Arthroderma benhamiae.
Experiment [9] relates to Talaromyces marneffei. Description: Antifungal activity against Penicillium marneffei after 3 to 4 days by serial plate dilution method. As to conditions: for MIC: Talaromyces marneffei. Type of experiment: functional.
For experiment [10], the system named is Candida albicans. As to the kind of experiment: Antifungal activity against Candida albicans NCIM no. 300 after 3 to 4 days by serial plate dilution method. It is filed as functional. As to conditions: for MIC: Candida albicans.

`COc1ccc(C2=NN(C(=O)COc3ccc(Cl)cc3Cl)C(O)(c3cc(F)c(Cl)cc3Cl)C2)cc1` (configuration not stated): the “inhibition zone (IZ)” value is 16 mm in experiment [1]; 16 mm in experiment [2]; 16 mm in experiment [3]; 21 mm in experiment [4]; 16 mm in experiment [5]; 19 mm in experiment [6]. Also, the “inhibition zone (IZ)” value was 19 mm in [7], 18 mm in experiment [8], 20 mm in [9] and 12.5 mm in experiment [10]. The MIC came to 12.5 µg/mL (≈ 22.4 µM) in [1]; 6.25 µg/mL (≈ 11.2 µM) in experiment [2]; 12.5 µg/mL (≈ 22.4 µM) in experiment [3]; 6.25 µg/mL (≈ 11.2 µM) in experiment [4]; 12.5 µg/mL (≈ 22.4 µM) in experiment [5]; 12.5 µg/mL (≈ 22.4 µM) in [6]. Further, the MIC was 6.25 µg/mL (≈ 11.2 µM) in experiment [7], 6.25 µg/mL (≈ 11.2 µM) in experiment [8], 6.25 µg/mL (≈ 11.2 µM) in [9] and 17 µg/mL (≈ 30.5 µM) in [10].

Regarding `COc1ccc(C2=NN(C(=O)COc3ccc(Cl)cc3Cl)C(O)(c3cc(F)c(Cl)cc3Cl)C2)cc1OC` (configuration not stated), the MIC in experiment [1] is > 100 µg/mL; in experiment [2], > 100 µg/mL; in [3], 25 µg/mL (≈ 42.5 µM); in experiment [4], > 100 µg/mL; in experiment [5], > 100 µg/mL; in [6] it was > 100 µg/mL. For the same molecule, the MIC was 12.5 µg/mL (≈ 21.2 µM) in [7], > 100 µg/mL in experiment [8], 25 µg/mL (≈ 42.5 µM) in experiment [9] and > 100 µg/mL in experiment [10]. Also, the “inhibition zone (IZ)” value is recorded as 9 mm in experiment [3], 14 mm in experiment [7] and 12 mm in experiment [9].

In the case of `COc1ccc(C2=NN(C(=O)COc3ccc(Cl)cc3)C(O)(c3cc(F)c(Cl)cc3Cl)C2)cc1` (configuration not stated), the “inhibition zone (IZ)” value in [1] was found to be 18 mm; in experiment [2], 19 mm; in experiment [3] it was 18 mm; in experiment [4] it was 22 mm; in [5], 19 mm; in experiment [6] it was 18 mm. The “inhibition zone (IZ)” value is listed as 21 mm in [7], 19 mm in experiment [8], 20 mm in experiment [9] and 19 mm in experiment [10]. The MIC was 12.5 µg/mL (≈ 23.9 µM) in experiment [1]; 6.25 µg/mL (≈ 11.9 µM) in [2]; 12.5 µg/mL (≈ 23.9 µM) in [3]; 6.25 µg/mL (≈ 11.9 µM) in experiment [4]; 6.25 µg/mL (≈ 11.9 µM) in experiment [5]; 12.5 µg/mL (≈ 23.9 µM) in [6]. The MIC in [7], in [8], in experiment [9] and in experiment [10] was 6.25 µg/mL (≈ 11.9 µM) throughout.

Turning to `Cc1ccc(OCC(=O)N2N=C(c3ccccc3)CC2(O)c2cc(F)c(Cl)cc2Cl)cc1` (configuration not stated), the “inhibition zone (IZ)” value in [1] came to 11 mm; in experiment [2], 17 mm; in [3], 15 mm; in experiment [4], 18 mm; in experiment [5] it was 18 mm; in experiment [6], 17 mm. For the same molecule, the “inhibition zone (IZ)” value in experiment [7] was 11 mm; in [8], 10 mm; in experiment [9], 12 mm; in experiment [10], 15 mm. For the same molecule, the MIC in experiment [1] is 25 µg/mL (≈ 52.8 µM); in experiment [2], 6.25 µg/mL (≈ 13.2 µM); in experiment [3], 12.5 µg/mL (≈ 26.4 µM); in [4] it was 6.25 µg/mL (≈ 13.2 µM); in experiment [5], 6.25 µg/mL (≈ 13.2 µM); in experiment [6], 12.5 µg/mL (≈ 26.4 µM). The MIC came out at 12.5 µg/mL (≈ 26.4 µM) in experiment [7], 25 µg/mL (≈ 52.8 µM) in experiment [8], 12.5 µg/mL (≈ 26.4 µM) in [9] and 12.5 µg/mL (≈ 26.4 µM) in [10].

In the case of `O=C(COc1ccc(Cl)cc1)N1N=C(c2ccc(Cl)cc2)CC1(O)c1cc(F)c(Cl)cc1Cl` (configuration not stated), the “inhibition zone (IZ)” value in experiment [1] amounted to 16 mm; in experiment [2], 18 mm; in experiment [3] it was 18 mm; in experiment [4], 21 mm; in [5] it was 19 mm; in [6] it was 20 mm. The “inhibition zone (IZ)” value is 18 mm in experiment [7], 19 mm in [8], 18 mm in experiment [9] and 20 mm in experiment [10]. Also, the MIC stood at 12.5 µg/mL (≈ 23.7 µM) in [1]; 6.25 µg/mL (≈ 11.8 µM) in experiment [2]; 12.5 µg/mL (≈ 23.7 µM) in [3]; 6.25 µg/mL (≈ 11.8 µM) in experiment [4]; 6.25 µg/mL (≈ 11.8 µM) in experiment [5]; 12.5 µg/mL (≈ 23.7 µM) in [6]. Further, the MIC came out at 6.25 µg/mL (≈ 11.8 µM) in experiment [7], 6.25 µg/mL (≈ 11.8 µM) in [8], 6.25 µg/mL (≈ 11.8 µM) in experiment [9] and 12.5 µg/mL (≈ 23.7 µM) in experiment [10].

In the case of `COc1ccc(C2=NN(C(=O)COc3ccc(C)cc3)C(O)(c3cc(F)c(Cl)cc3Cl)C2)cc1` (configuration not stated), the MIC in experiment [1] was > 100 µg/mL; in experiment [2] it was > 100 µg/mL; in experiment [3], > 100 µg/mL; in experiment [4], 25 µg/mL (≈ 49.7 µM); in [5] it was > 100 µg/mL; in experiment [6], > 100 µg/mL. Also, the MIC in [7] is 12.5 µg/mL (≈ 24.8 µM); in experiment [8], 25 µg/mL (≈ 49.7 µM); in [9], 12.5 µg/mL (≈ 24.8 µM); in experiment [10], > 100 µg/mL. The “inhibition zone (IZ)” value in experiment [4] was determined as 10 mm; in experiment [7], 12 mm; in [8], 10 mm; in [9], 12 mm.

`O=C(COc1ccc(Cl)cc1Cl)N1N=C(c2ccccc2)CC1(O)c1cc(F)c(Cl)cc1Cl` (configuration not stated): the “inhibition zone (IZ)” value amounted to 15 mm in experiment [1]; 15 mm in experiment [2]; 17 mm in [3]; 19 mm in [4]; 16 mm in [5]; 15 mm in experiment [6]. In addition, the “inhibition zone (IZ)” value in experiment [7] amounted to 13 mm; in experiment [8] it was 11 mm; in experiment [9] it was 15 mm; in [10], 10 mm. The MIC in experiment [1] is 12.5 µg/mL (≈ 23.7 µM); in [2], 6.25 µg/mL (≈ 11.8 µM); in experiment [3], 12.5 µg/mL (≈ 23.7 µM); in experiment [4], 6.25 µg/mL (≈ 11.8 µM); in experiment [5] it was 6.25 µg/mL (≈ 11.8 µM); in experiment [6], 12.5 µg/mL (≈ 23.7 µM). Moreover, the MIC in experiment [7] turned out to be 12.5 µg/mL (≈ 23.7 µM); in experiment [8], 25 µg/mL (≈ 47.3 µM); in experiment [9], 6.25 µg/mL (≈ 11.8 µM); in experiment [10], 25 µg/mL (≈ 47.3 µM).
